From patent US8362000B2, “Azetidinyl diamides as monoacylglycerol lipase inhibitors” (Janssen Pharmaceutica NV, priority 2009, dated 2013)

Biological target: T1, mutant MGL (Homo sapiens, UniProt Q99685, L169S/L176S)
T1 sequence (Q99685 1-303 L169S/L176S): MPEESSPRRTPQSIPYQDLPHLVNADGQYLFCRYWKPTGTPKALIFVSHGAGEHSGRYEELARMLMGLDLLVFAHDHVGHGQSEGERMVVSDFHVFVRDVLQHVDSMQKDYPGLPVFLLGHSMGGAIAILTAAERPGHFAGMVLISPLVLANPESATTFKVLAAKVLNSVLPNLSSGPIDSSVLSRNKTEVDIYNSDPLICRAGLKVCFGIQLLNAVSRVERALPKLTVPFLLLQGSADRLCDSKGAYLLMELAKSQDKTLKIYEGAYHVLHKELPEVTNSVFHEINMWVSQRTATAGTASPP
Assay: MGL ThermoFluor assay - mutant
Format: binding
Details: ThermoFluor concentration-response, read-out: MGL mutant ThermoFluor Kd

In order of rising Kd:
1. O=C(c1ccccc1)N1CCN(C2CN(C(=O)c3ccc(-c4ccc(F)cc4)cc3)C2)CC1 [Cpd 33, 1-{1-[(4′-Fluorobiphenyl-4-yl)carbonyl]azetidin-3-yl}-4-(phenylcarbonyl)piperazine]  0.0091 µM
2. CC(C)(C)OC(=O)N1CCC(c2ccc(C(=O)N3CC(N4CCN(C(=O)c5ccccc5)CC4)C3)cc2)CC1 [Cpd 109, tert-Butyl 4-[4-({3-[4-(phenylcarbonyl)piperazin-1-yl]azetidin-1-yl}carbonyl)phenyl]piperidine-1-carboxylate]  0.0333 µM
3. Cc1nc(-c2cccc(C(F)(F)F)c2)sc1C(=O)N1CC(N2CCN(C(=O)c3ccccc3)CC2)C1 [Cpd 618, 1-[1-({4-Methyl-2-[3-(trifluoromethyl)phenyl]-1,3-thiazol-5-yl}carbonyl)azetidin-3-yl]-4-(phenylcarbonyl)piperazine]  0.08 µM
4. O=C(c1ccccc1)N1CCN(C2CN(C(=O)c3ccc(N4CCCCC4)cc3)C2)CC1 [Cpd 53, 1-(Phenylcarbonyl)-4-{1-[(4-piperidin-1-ylphenyl)carbonyl]azetidin-3-yl}piperazine]  0.1 µM
5. O=C(c1ccccc1)N1CCN(C2CN(C(=O)c3ccc(CSc4cccc(Cl)c4)cc3)C2)CC1 [Cpd 551]  0.18 µM
6. O=C(c1ccccc1)N1CCN(C2CN(C(=O)c3ccc(Oc4cccc(Cl)c4)cc3)C2)CC1 [Cpd 426]  0.25 µM
7. O=C(c1ccccc1)N1CCN(C2CN(C(=O)c3ccc(-n4cccc4)cc3)C2)CC1 [Cpd 28, 1-(Phenylcarbonyl)-4-(1-{[4-(1H-pyrrol-1-yl)phenyl]carbonyl}azetidin-3-yl)piperazine]  0.37 µM
8. COc1ccc(-c2ccc(C(=O)N3CC(N4CCN(C(=O)c5ccccc5)CC4)C3)cc2)cc1 [Cpd 34, 1-{1-[(4′-Methoxybiphenyl-4-yl)carbonyl]azetidin-3-yl}-4-(phenylcarbonyl)piperazine]  0.588 µM
9. Cc1oc(-c2ccccc2)cc1C(=O)N1CC(N2CCN(C(=O)c3ccccc3)CC2)C1 [Cpd 623, 1-{1-[(2-Methyl-5-phenylfuran-3-yl)carbonyl]azetidin-3-yl}-4-(phenylcarbonyl)piperazine]  1 µM
10. O=C(c1ccccc1)N1CCN(C2CN(C(=O)c3cccc(NCc4ccccc4)c3)C2)CC1 [Cpd 531, N-Benzyl-3-({3-[4-(phenylcarbonyl)piperazin-1-yl]azetidin-1-yl}carbonyl)aniline]  2.73 µM
11. CSc1ccc(C(=O)N2CC(N3CCN(C(=O)c4ccccc4)CC3)C2)cc1 [Cpd 470, 1-(1-{[4-(Methylsulfanyl)phenyl]carbonyl}azetidin-3-yl)-4-(phenylcarbonyl)piperazine]  2.94 µM
12. O=C(c1ccccc1)N1CCN(C2CN(C(=O)c3ccc(Cc4ccccc4)cc3)C2)C(CO)C1 (stereo not drawn) [Cpd 457, [1-{1-[(4-Benzylphenyl)carbonyl]azetidin-3-yl}-4-(phenylcarbonyl)piperazin-2-yl]methanol]  4.82 µM
13. COc1cc(C(=O)N2CC(N3CCN(C(=O)c4ccccc4)CC3)C2)ccc1Br [Cpd 24, 1-{1-[(4-Bromo-3-methoxyphenyl)carbonyl]azetidin-3-yl}-4-(phenylcarbonyl)piperazine]  5 µM

Same assay, conditions: ThermoFluor thermal stability binding assay, read-out: MGL mutant ThermoFluor Kd

In order of falling Kd:
1. CC(=O)N1CCC(c2ccc(C(=O)N3CC(N4CCN(C(=O)c5ccccc5)CC4)C3)cc2)CC1 [Cpd 546]  12.4 µM
2. O=C(c1ccc(OCc2ccc3ccccc3n2)cc1)N1CC(N2CCN(C(=O)c3cscn3)CC2)C1 [Cpd 970]  0.535 µM
3. O=C(c1ccc(OCc2ccc(Cl)s2)cc1)N1CC(N2CCN(C(=O)c3cscn3)CC2)C1 [Cpd 963]  0.102 µM
4. Cc1cc(C(=O)N2CC(N3CCN(C(=O)c4nccs4)CC3)C2)ccc1-c1cccc(C(F)(F)F)c1 [Cpd 241, 1-(1-{[2-Methyl-3′-(trifluoromethyl)biphenyl-4-yl]carbonyl}azetidin-3-yl)-4-(1,3-thiazol-2-ylcarbonyl)piperazine]  0.0005 µM
5. COc1cc(C(=O)N2CC(N3CCN(C(=O)c4nccs4)CC3)C2)ccc1-c1cccc(C(F)(F)F)c1 [Cpd 247, 1-(1-{[2-Methoxy-3′-(trifluoromethyl)biphenyl-4-yl]carbonyl}azetidin-3-yl)-4-(1,3-thiazol-2-ylcarbonyl)piperazine]  0.0004 µM
